Experimental data as given in PubChem BioAssay (NCI).
Several values for one entry are separate records, joined by “and”; a condition that tells them apart may be missing. Identical values can stand only once.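 Values below derive from 48-hour exposures of cells grown in 96-well plates, with endpoints linearly interpolated between the two concentrations bracketing the appropriate inhibition level. At the GI50, growth is halved. TGI marks complete inhibition of growth.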

How the values were obtained:
Experiment in all cases: inhibition of tumour cell growth, NCI panel, 48 h
DMS 273 small cell lung = tested on: DMS 273 small cell lung
DLD-1 colon = tested on: DLD-1 colon
NCI-H522 lung = tested on: NCI-H522 lung
786-0 renal = tested on: 786-0 renal
OVCAR-5 ovarian = tested on: OVCAR-5 ovarian
DMS 114 small cell lung = tested on: DMS 114 small cell lung
RPMI-8226 leukemia = tested on: RPMI-8226 leukemia
SR leukemia = tested on: SR leukemia
MDA-MB-231 breast = tested on: MDA-MB-231 breast
MDA-MB-435 = tested on: MDA-MB-435

COC(=O)/C(=C\c1ccc(N(CCC#N)CCC#N)cc1)NC(=O)c1cc([N+](=O)[O-])ccc1Cl
TGI (DMS 273 small cell lung): > 100 µM
TGI (DLD-1 colon): > 100 µM
TGI (NCI-H522 lung): > 100 µM
TGI (786-0 renal): > 100 µM
TGI (OVCAR-5 ovarian): > 100 µM
TGI (DMS 114 small cell lung): > 100 µM
TGI (RPMI-8226 leukemia): > 100 µM
TGI (SR leukemia): 81.5 µM

CCN(CC)CCNC(=O)c1ccc(C)c(OCc2ccccc2)c1[N+](=O)[O-]
TGI (DMS 273 small cell lung): 46.9 µM
TGI (DLD-1 colon): > 100 µM
TGI (NCI-H522 lung): 76.5 µM
TGI (786-0 renal): > 74.6 µM
TGI (OVCAR-5 ovarian): 81.3 µM
TGI (MDA-MB-231 breast): > 100 µM
TGI (DMS 114 small cell lung): > 65.7 µM
TGI (RPMI-8226 leukemia): 72.6 µM
TGI (SR leukemia): 69.9 µM

CCOC(=O)/C(=C/c1cccc(C#N)c1)N(CC)CC
TGI (DLD-1 colon): > 100 µM
TGI (NCI-H522 lung): > 100 µM
TGI (786-0 renal): > 100 µM
TGI (OVCAR-5 ovarian): > 100 µM
TGI (DMS 114 small cell lung): > 100 µM
TGI (RPMI-8226 leukemia): > 100 µM
TGI (SR leukemia): > 100 µM

O=C(O)C12CC3(C(=O)O)CC(C(=O)O)(CC(C(=O)O)(C1)C3=O)C2=O
TGI (NCI-H522 lung): > 100 µM
TGI (786-0 renal): > 100 µM
TGI (OVCAR-5 ovarian): > 100 µM
TGI (MDA-MB-435): > 100 µM
TGI (MDA-MB-231 breast): > 100 µM
TGI (RPMI-8226 leukemia): > 100 µM
TGI (SR leukemia): > 100 µM

N#CC(C(=O)CCC(=O)Nc1cccc(C(F)(F)F)c1)c1ccc(Cl)cc1 (stereo not drawn)
TGI (DMS 273 small cell lung): > 100 µM
TGI (DLD-1 colon): > 100 µM
TGI (NCI-H522 lung): > 100 µM
TGI (786-0 renal): > 100 µM
TGI (OVCAR-5 ovarian): > 100 µM
TGI (RPMI-8226 leukemia): > 100 µM

O=c1[nH]c(=O)n([C@H]2CCCO2)cc1F
GI50 (NCI-H522 lung): > 2650 µM
TGI (NCI-H522 lung): > 5000 µM
GI50 (786-0 renal): 1780 µM
TGI (786-0 renal): > 5000 µM
GI50 (OVCAR-5 ovarian): 2660 µM
TGI (OVCAR-5 ovarian): > 5000 µM
GI50 (MDA-MB-435): 1350 µM
TGI (MDA-MB-435): > 5000 µM
TGI (MDA-MB-231 breast): > 5000 µM
GI50 (RPMI-8226 leukemia): 666 µM
TGI (RPMI-8226 leukemia): > 5000 µM
GI50 (SR leukemia): 473 µM
TGI (SR leukemia): > 2360 µM

Nc1nc(N)c2cc(CNc3ccc(C(=O)NC(CC(=O)O)C(=O)O)c(Cl)c3)ccc2n1 (stereo not drawn)
GI50 (NCI-H522 lung): 342 µM
TGI (NCI-H522 lung): > 500 µM
GI50 (786-0 renal): < 0.01 µM
TGI (786-0 renal): > 500 µM
GI50 (OVCAR-5 ovarian): 0.05 µM
TGI (OVCAR-5 ovarian): > 500 µM
GI50 (MDA-MB-435): 0.05 µM
TGI (MDA-MB-435): > 500 µM
TGI (MDA-MB-231 breast): > 500 µM
TGI (DMS 114 small cell lung): 0.0214 µM
GI50 (RPMI-8226 leukemia): 2.77 µM
TGI (RPMI-8226 leukemia): > 500 µM
TGI (SR leukemia): > 500 µM

COC(=O)CCC1=C(CC(=O)OC)C(C)=N/C1=C\c1[nH]c(-c2ccc[nH]2)cc1OC
GI50 (NCI-H522 lung): 1.81 µM
TGI (NCI-H522 lung): 3.97 µM
GI50 (786-0 renal): 2.73 µM
TGI (786-0 renal): 10.2 µM
GI50 (OVCAR-5 ovarian): 3.9 µM
TGI (OVCAR-5 ovarian): 18.8 µM
GI50 (MDA-MB-435): 5.81 µM
TGI (MDA-MB-435): 23.3 µM
GI50 (MDA-MB-231 breast): 2.37 µM
TGI (MDA-MB-231 breast): 11.6 µM
GI50 (RPMI-8226 leukemia): 1.44 µM
TGI (RPMI-8226 leukemia): 4.91 µM
GI50 (SR leukemia): 1.71 µM
TGI (SR leukemia): 7.7 µM

COc1ccc2c3c(Nc4ccc(/C(C)=N/O)cc4)[nH]c4ccccc4c-3c(N=O)c2c1
GI50 (NCI-H522 lung): 18.9 µM
TGI (NCI-H522 lung): 41.9 µM
GI50 (786-0 renal): 13.4 µM
TGI (786-0 renal): 28.2 µM
GI50 (OVCAR-5 ovarian): 3.02 µM
TGI (OVCAR-5 ovarian): 12.2 µM
GI50 (MDA-MB-435): 2.77 µM
TGI (MDA-MB-435): 11.9 µM
GI50 (MDA-MB-231 breast): 4.8 µM
TGI (MDA-MB-231 breast): 24.3 µM
GI50 (RPMI-8226 leukemia): 2.52 µM
TGI (RPMI-8226 leukemia): 5.14 µM
GI50 (SR leukemia): 1.47 µM
TGI (SR leukemia): 4.27 µM

Oc1ccc(Br)cc1C=Nc1ccc(N=Cc2cc(Br)ccc2O)cc1
TGI (DLD-1 colon): > 100 µM
TGI (786-0 renal): > 100 µM
TGI (OVCAR-5 ovarian): > 100 µM
TGI (DMS 114 small cell lung): > 100 µM
TGI (RPMI-8226 leukemia): > 100 µM
TGI (SR leukemia): > 100 µM

CCOc1ccccc1NC(=O)C(C#N)C1=C(Cl)C(=O)c2ccccc2C1=O (stereo not drawn)
TGI (DMS 273 small cell lung): 3.35 µM and 3.47 µM
GI50 (DLD-1 colon): 2.14 µM
TGI (DLD-1 colon): 3.31 µM and 4.27 µM
TGI (NCI-H522 lung): 4.22 µM
GI50 (786-0 renal): 0.899 µM
TGI (786-0 renal): 3.18 µM and 2.19 µM
TGI (OVCAR-5 ovarian): 3.57 µM and 3.55 µM
GI50 (DMS 114 small cell lung): 1.66 µM
TGI (DMS 114 small cell lung): 2.16 µM and 3.85 µM
GI50 (RPMI-8226 leukemia): 3.34 µM
TGI (SR leukemia): 3.73 µM

C/C(=N\NC(=S)N1CC2CCC(CC2)C1)c1ccccn1
GI50 (NCI-H522 lung): 0.195 µM
TGI (NCI-H522 lung): 1.27 µM
GI50 (786-0 renal): 0.152 µM
TGI (786-0 renal): 1.46 µM
GI50 (OVCAR-5 ovarian): 0.0949 µM
TGI (OVCAR-5 ovarian): 2.73 µM
GI50 (MDA-MB-435): 0.141 µM
TGI (MDA-MB-435): 1.64 µM
GI50 (MDA-MB-231 breast): 0.156 µM
TGI (MDA-MB-231 breast): 2.45 µM
GI50 (RPMI-8226 leukemia): 0.0368 µM
TGI (RPMI-8226 leukemia): 0.78 µM
GI50 (SR leukemia): 0.0424 µM
TGI (SR leukemia): 2.22 µM

CC1=C(C(=O)NNS(=O)(=O)c2ccc(C)cc2)CC(C(=O)NNS(=O)(=O)c2ccc(C)cc2)=C(C)N1
TGI (DLD-1 colon): > 100 µM
TGI (NCI-H522 lung): > 100 µM
TGI (786-0 renal): > 100 µM
TGI (OVCAR-5 ovarian): > 100 µM
TGI (DMS 114 small cell lung): > 100 µM
TGI (RPMI-8226 leukemia): > 100 µM
TGI (SR leukemia): > 100 µM

Cc1ncc([N+](=O)[O-])n1CCNS(=O)(=O)CCCn1ncnc1[N+](=O)[O-]
TGI (NCI-H522 lung): > 100 µM
TGI (786-0 renal): > 100 µM
TGI (OVCAR-5 ovarian): > 100 µM
TGI (MDA-MB-435): > 100 µM
TGI (MDA-MB-231 breast): > 100 µM
TGI (RPMI-8226 leukemia): > 100 µM
TGI (SR leukemia): > 100 µM

CN(C)CCSc1nccc(-c2cc3ccccc3s2)n1
TGI (DMS 273 small cell lung): 34.1 µM
TGI (DLD-1 colon): > 100 µM
TGI (NCI-H522 lung): 36.7 µM
TGI (786-0 renal): 63.4 µM
TGI (OVCAR-5 ovarian): 82.4 µM
TGI (DMS 114 small cell lung): 51.6 µM
TGI (SR leukemia): 63.4 µM

Cn1cc(-c2ccc(-c3cncc(Cl)c3N3CCC4(CCNC4=O)CC3)cc2)cn1
GI50 (NCI-H522 lung): 26.4 µM
TGI (NCI-H522 lung): > 100 µM
GI50 (786-0 renal): 14.6 µM
TGI (786-0 renal): > 100 µM
GI50 (OVCAR-5 ovarian): > 100 µM
TGI (OVCAR-5 ovarian): > 100 µM
GI50 (MDA-MB-435): 38.7 µM
TGI (MDA-MB-435): > 100 µM
GI50 (MDA-MB-231 breast): > 100 µM
TGI (MDA-MB-231 breast): > 100 µM
GI50 (RPMI-8226 leukemia): 17 µM
TGI (RPMI-8226 leukemia): 95.3 µM
GI50 (SR leukemia): 1.68 µM
TGI (SR leukemia): 21.2 µM

S=C1SC2=Nc3ccccc3CN2C2=NCCN12
GI50 (NCI-H522 lung): 27.7 µM
TGI (NCI-H522 lung): > 100 µM
GI50 (786-0 renal): > 100 µM
TGI (786-0 renal): > 100 µM
GI50 (OVCAR-5 ovarian): > 100 µM
TGI (OVCAR-5 ovarian): > 100 µM
GI50 (MDA-MB-435): > 100 µM
TGI (MDA-MB-435): > 100 µM
GI50 (MDA-MB-231 breast): > 100 µM
TGI (MDA-MB-231 breast): > 100 µM
GI50 (RPMI-8226 leukemia): > 100 µM
TGI (RPMI-8226 leukemia): > 100 µM
GI50 (SR leukemia): 18.7 µM
TGI (SR leukemia): 55.7 µM

O=C(O)CSc1n[nH]c(Cc2ccccc2)n1
TGI (DLD-1 colon): > 100 µM
TGI (NCI-H522 lung): > 100 µM
TGI (786-0 renal): > 100 µM
TGI (OVCAR-5 ovarian): > 100 µM
TGI (DMS 114 small cell lung): > 100 µM
TGI (RPMI-8226 leukemia): > 100 µM
TGI (SR leukemia): > 100 µM
